Data from ChEMBL document CHEMBL1156512, “Accumulation of glucosylceramide in murine testis, caused by inhibition of beta-glucosidase 2: implications for spermatogenesis” (J Biol Chem, 2007).
The source made the active and inactive calls. The rule behind the calls is not given here.

Assays:
[1] = target: T1, Beta-glucosidase (Homo sapiens, UniProt Q9HCG7); experiment: Inhibition of bile acid beta-glucosidase activity of human liver GBA2
T1 sequence (Q9HCG7 whole entry): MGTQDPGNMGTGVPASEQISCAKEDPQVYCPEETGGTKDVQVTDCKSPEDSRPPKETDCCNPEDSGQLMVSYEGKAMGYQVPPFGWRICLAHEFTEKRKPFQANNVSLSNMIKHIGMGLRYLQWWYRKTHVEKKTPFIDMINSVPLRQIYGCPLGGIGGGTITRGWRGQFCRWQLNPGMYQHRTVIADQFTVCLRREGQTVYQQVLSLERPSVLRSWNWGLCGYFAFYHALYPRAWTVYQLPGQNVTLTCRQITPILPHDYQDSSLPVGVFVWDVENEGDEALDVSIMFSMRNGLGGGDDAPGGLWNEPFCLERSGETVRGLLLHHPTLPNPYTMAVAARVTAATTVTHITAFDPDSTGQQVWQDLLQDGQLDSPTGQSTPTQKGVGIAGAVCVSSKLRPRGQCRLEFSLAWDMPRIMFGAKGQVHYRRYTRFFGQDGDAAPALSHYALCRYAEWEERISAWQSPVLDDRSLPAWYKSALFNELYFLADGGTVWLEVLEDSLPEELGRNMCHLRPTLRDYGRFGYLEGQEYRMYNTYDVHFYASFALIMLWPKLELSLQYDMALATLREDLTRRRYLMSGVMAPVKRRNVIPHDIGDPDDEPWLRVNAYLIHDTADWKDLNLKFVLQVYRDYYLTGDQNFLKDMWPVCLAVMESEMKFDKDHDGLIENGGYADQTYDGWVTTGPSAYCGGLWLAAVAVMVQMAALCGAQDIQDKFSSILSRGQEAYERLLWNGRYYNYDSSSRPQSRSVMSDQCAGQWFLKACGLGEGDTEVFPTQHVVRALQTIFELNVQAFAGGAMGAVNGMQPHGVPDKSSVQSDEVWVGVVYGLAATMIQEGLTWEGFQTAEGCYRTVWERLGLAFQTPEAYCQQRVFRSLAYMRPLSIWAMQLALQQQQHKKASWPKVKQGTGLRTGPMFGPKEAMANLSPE

[2] = target: T2, Ceramide glucosyltransferase (Mus musculus, UniProt O88693); experiment: Inhibition mouse glucosylceramide synthase
T2 sequence (O88693 whole entry): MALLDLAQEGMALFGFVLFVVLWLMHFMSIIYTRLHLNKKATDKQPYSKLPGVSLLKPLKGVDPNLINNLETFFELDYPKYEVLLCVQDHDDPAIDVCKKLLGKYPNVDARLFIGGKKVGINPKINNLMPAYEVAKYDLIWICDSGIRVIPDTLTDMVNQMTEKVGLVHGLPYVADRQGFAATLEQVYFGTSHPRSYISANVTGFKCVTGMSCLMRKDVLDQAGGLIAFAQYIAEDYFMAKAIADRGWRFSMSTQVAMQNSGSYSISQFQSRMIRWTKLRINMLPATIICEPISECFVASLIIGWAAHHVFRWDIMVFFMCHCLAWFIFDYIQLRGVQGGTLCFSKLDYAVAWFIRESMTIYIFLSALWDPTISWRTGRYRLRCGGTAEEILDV

[3] = system: Mus musculus; experiment: Effect on glucosylceramide level in C57BL/6 mouse testes at 15 mg/kg/day administered with chow; assay type: functional, organism-based; conditions: Testis
[4] = system: Mus musculus; experiment: Effect on spermatogenesis in DBA2 mouse assessed as morphological changes in spermatozoa at 150 mg/kg/day administered with chow; assay type: functional, organism-based
[5] = system: Mus musculus; experiment: Increase in glucosylceramide level in GBA2 deficient C57BL/6-129S1 mouse testes at 150 mg/kg/day administered with chow; assay type: functional, organism-based; conditions: Testis
[6] = species: Mus musculus; experiment: Effect on glucosylceramide level in C57BL/6 mouse testes; assay type: functional, organism-based; conditions: Testis
[7] = system: Mus musculus; experiment: Increase in glucosylceramide level in C57BL/6 mouse testes administered with chow after 5 days; assay type: functional, organism-based; conditions: Testis
[8] = system: Mus musculus; experiment: Increase in complex glycosylated sphingolipids level in C57BL/6 mouse testes at 15 mg/kg/day administered with chow after 6 to 9 months; assay type: functional, organism-based; conditions: Testis
[9] = system: Mus musculus; experiment: Effect on spermatogenesis in NZW mouse assessed as morphological changes in spermatozoa at 150 mg/kg/day administered with chow; assay type: functional, organism-based
[10] = system: Mus musculus; experiment: Increase in glucosylceramide level in C57BL/6 mouse testes administered with chow at 15 mg/kg/day after 3 to 12 months; assay type: functional, Testis
[11] = system: Mus musculus; experiment: Effect on testicular ceramides level in C57BL/6 mouse at 150 mg/kg/day administered with chow; assay type: functional, organism-based
[12] = system: Mus musculus; experiment: Increase in glucosylceramide level in C57BL/6 mouse spleen administered with chow; assay type: functional, organism-based
[13] = system: Mus musculus; experiment: Effect on spermatogenesis in C57BL/6-129S1 mouse assessed as morphological changes in spermatozoa at 150 mg/kg/day administered with chow; assay type: functional, organism-based
[14] = system: Mus musculus; experiment: Decrease in testicular very long chain polyunsaturated fatty acid sphingomyelin level in beta-glucosidase 2 deficient C57BL/6-129S1 mouse at 150 mg/kg/day administered with chow; assay type: functional, organism-based
[15] = system: Mus musculus; experiment: Increase in glucosylceramide level in GBA2 deficient C57BL/6-129S1 mouse somatic cells at 150 mg/kg/day administered with chow; assay type: functional, organism-based
[16] = system: Mus musculus; experiment: Increase in glucosylceramide level in C57BL/6 mouse liver administered with chow; assay type: functional, organism-based
[17] = system: Mus musculus; experiment: Increase in very long and polyunsaturated glucosylceramide level in C57BL/6 mouse testes at 150 mg/kg/day administered with chow; assay type: functional, organism-based; conditions: Testis
[18] = species: Mus musculus; experiment: Increase in neutral glycolipids level in C57BL/6 mouse testes; assay type: functional, organism-based; conditions: Testis
[19] = system: Mus musculus; experiment: Effect on testicular sphingomyelin level in C57BL/6 mouse at 150 mg/kg/day administered with chow; assay type: functional, organism-based
[20] = system: Serum; experiment: Drug level in C57BL/6 mouse serum at 15 mg/kg/day assessed as enzyme activity; assay type: ADME, organism-based; conditions: in vivo, read-out: Drug uptake
[21] = system: Mus musculus; experiment: Effect on spermatogenesis in C57BR mouse assessed as morphological changes in spermatozoa at 150 mg/kg/day administered with chow; assay type: functional, organism-based
[22] = system: Mus musculus; experiment: Increase in glucosylceramide level in GBA2 deficient C57BL/6-129S1 mouse germ cells at 150 mg/kg/day administered with chow; assay type: functional, organism-based
[23] = system: Mus musculus; experiment: Effect on spermatogenesis in FVB/N mouse assessed as morphological changes in spermatozoa at 15 mg/kg/day administered with chow; assay type: functional, organism-based
[24] = system: Mus musculus; experiment: Effect on spermatogenesis in C3H mouse assessed as morphological changes in spermatozoa at 150 mg/kg/day administered with chow; assay type: functional, organism-based
[25] = system: Mus musculus; experiment: Effect on spermatogenesis in AKR mouse assessed as morphological changes in spermatozoa at 150 mg/kg/day administered with chow; assay type: functional, organism-based
[26] = system: Mus musculus; experiment: Increase in glucosylceramide level in C57BL/6 mouse testes at 300 mg/kg/day administered with chow; assay type: functional, organism-based; conditions: Testis
[27] = system: Mus musculus; experiment: Increase in complex glycosylated sphingolipids in C57BL/6 mouse testes at 5 mg/kg/day administered with chow; assay type: functional, Testis
[28] = system: Mus musculus; experiment: Effect on complex glycosylated sphingolipids level in C57BL/6 mouse testes at 15 to 50 mg/kg/day, po; assay type: functional, organism-based; conditions: Testis
[29] = system: Mus musculus; experiment: Effect on spermatogenesis in C57BL/10 mouse assessed as morphological changes in spermatozoa at 15 mg/kg/day administered with chow; assay type: functional, organism-based
[30] = system: Mus musculus; experiment: Effect on spermatogenesis in MA/My mouse assessed as morphological changes in spermatozoa at 150 mg/kg/day administered with chow; assay type: functional, organism-based
[31] = system: Mus musculus; experiment: Effect on spermatogenesis in C57BL/6 mouse assessed as morphological changes in spermatozoa at 150 mg/kg/day administered with chow; assay type: functional, organism-based
[32] = system: Mus musculus; experiment: Effect on spermatogenesis in BALB/c mouse assessed as morphological changes in spermatozoa at 150 mg/kg/day administered with chow; assay type: functional, organism-based
[33] = system: Mus musculus; experiment: Increase in long and saturated glucosylceramide level in C57BL/6 mouse testes at 150 mg/kg/day administered with chow; assay type: functional, organism-based; conditions: Testis
[34] = system: Mus musculus; experiment: Increase in glucosylceramide level in C57BL/6 mouse brain at 1200 mg/kg/day administered with chow; assay type: functional, organism-based
[35] = system: Mus musculus; experiment: Reduction of complex glycosylated sphingolipids level in C57BL/6 mouse testes at 2400 mg/kg/day administered with chow; assay type: functional; parameters: scale not given: the % may be the effect or the level left

CCCCCCCCCOC(=O)N1C[C@H](O)[C@@H](O)[C@H](O)[C@H]1CO
IC50 [1]: 20 nM

CCCCCCCCCCCCN1C[C@H](O)[C@@H](O)[C@H](O)[C@H]1CO
IC50 [1]: 2 nM

CCCCN1[C@H](CO)[C@H](O)[C@H](O)[C@@H](O)[C@@H]1O
IC50 [2]: 5300 nM

CCCCN1C[C@H](O)[C@@H](O)[C@H](O)[C@H]1CO
Activity [3]: Active
Activity [4]: inactive
Activity [5]: Active
Activity [6]: Dose-dependent effect
Activity [7]: Active
Activity [8]: Active
Activity [9]: inactive
Activity [10]: 5
Activity [11]: inactive
Activity [12]: Active
Activity [13]: inactive
Activity [14]: Active
Activity [15]: Active
Activity [16]: inactive
Activity [17]: Active
Activity [18]: Active
Activity [19]: inactive
concentration [20]: 490 nM
Activity [21]: Active
Activity [22]: Active
Activity [23]: inactive
Activity [24]: inactive
Activity [25]: inactive
Activity [26]: Active
Activity [27]: 15%
Activity [28]: inactive
Activity [29]: Active
Activity [30]: inactive
Activity [31]: Active
Activity [32]: inactive
Activity [33]: Active
Activity [34]: Active
Activity [35]: 22%
